From patent US5183826A, “Antiviral agent” (Merck & Co., Inc., priority 1990, dated 1993) come the findings set out here.

In one series the target is T1, HIV protease (Human immunodeficiency virus type 1 group M subtype B, UniProt P12497).
T1 construct: ability of a HIV protease to cleave the peptide bond
In words: HIV protease inhibition: cleavage of radiolabelled synthetic peptide substrate (beta-naphthylalanine-proline bond). Format: biochemical. The note with it: for Disintegrations/Minute: Blank 236, Total (Control) 4497. From the text: The HIV protease inhibitor activity may be seen in an assay to test the presence of a compound which affects the ability of a HIV protease to cleave the peptide bond between β-naphthylalanine and proline. A suitable substrate is ^3 H β-casein. However, a synthetic peptide containing the β-naphthylalanine and proline link gives more consistent results and one especially preferred is a peptide which is radioactively labelled at one terminus and arginine substituted at the other terminus thereby allowing the basic end to be bound to a cation exchange resin and the cleaved labelled fragment to be found in the eluate.
In a representative assay, 25 μl of a dilute peptide substrate solution containing 0.5 μl of the substrate in a 100 mM sodium acetate buffer was added to an assay tube containing (a) 45 μl of 111 mM sodium acetate buffer, (b) 25 μl of a diluted protease solution containing 0.4% bovine serum albumin (BSA) and (c) 5 μl of a solution containing from 0.63 to 210 μM of Compound I, or to blank tubes containing 25 μl of 100 mM sodium acetate plus 0.4 percent BSA, 45 μl of 111 mM sodium acetate buffer and 5 μl of dimethyl sulfoxide (DMSO) (99 vols. DMSO plus 1 vol 100 mM tris(hydroxymethyl)aminomethane (TRIS·HCl), pH 7.5). In the tubes, the concentration of the protease solution is 2.0 nM. The assay tubes are then incubated for 37° C. for 60 minutes and the reaction then quenched with 100 μl of 5% H3 PO4.
150 microliters of the reaction mixture was placed on a cation exchange column (Dowex AG-50W-X8, Dow Chemical Company) and the column then washed with 1.85 milliliters of water and the effluents collected in scintillation vials. 7-10 milliliters of scintillation cocktails were added to each vial, the vials vortexed vigorously, then placed in the scintillation counter and counted using the tritium channel. The results were as follows:
The percent inhibition was obtained by the following calculation: [formula]

The subject of series [1] is platelet activating factor. As to the kind of experiment: assay for platelet activating factor.
The subject of another series is proteases. In words: specificity against other proteases (statement). The format is biochemical. The conditions noted are these: no inhibitory effect or some activity only against proteases whose locus of action is avoidable.
A short description of series [2]: solubility in organic solvents. The note with it: methanol, ethanol, isopropanol, ethyl acetate, chloroform, dimethylformamide, benzene, diethyl ether, dimethyl sulfoxide.
Series [3] in a line: cytotoxic and other side effects (statement).

With `C=C1C(C)C2C(Cc3ccccc3)NC(=O)C23C(OC(C)=O)/C=C/C(C)CC(C)C/C=C/C3C1O` (stereo not shown) [Compound I], the “HIV protease inhibition (general statement in words)” value at HIV protease was “very effective HIV protease inhibitor”. The IC50 on HIV protease was about 6.28 µM. For the same molecule, the Disintegrations/Minute at HIV protease (Compound I 2.1 μM) came out at 3862 Disintegrations/Minute; at HIV protease (Compound I 6.3 μM), 2309 Disintegrations/Minute; on HIV protease (Compound I 21 μM), 1139 Disintegrations/Minute; on HIV protease (Compound I 63 μM) it was 550 Disintegrations/Minute; on HIV protease (Compound I 210 μM), 402 Disintegrations/Minute; on HIV protease (Compound I .63 μM), 5265 Disintegrations/Minute. Also, the inhibition at 2.1 µM on HIV protease (Compound I 2.1 μM, protease 2.0 nM, 37° C., 60 minutes, read-out: Percent Inhibition) came to 15%. The inhibition at 6.3 µM on HIV protease (Compound I 6.3 μM, protease 2.0 nM, 37° C., 60 minutes, read-out: Percent Inhibition) came out at 51%. For the same molecule, the inhibition at 21 µM (stock) at HIV protease (Compound I 21 μM, protease 2.0 nM, 37° C., 60 minutes, read-out: Percent Inhibition) was determined as 79%. Moreover, the inhibition at 63 µM at HIV protease (Compound I 63 μM, protease 2.0 nM, 37° C., 60 minutes, read-out: Percent Inhibition) worked out at 93%. The inhibition at 210 µM at HIV protease (Compound I 210 μM, protease 2.0 nM, 37° C., 60 minutes, read-out: Percent Inhibition) is 96%. Further, at HIV protease (Compound I .63 μM, protease 2.0 nM, 37° C., 60 minutes, read-out: Percent Inhibition), the inhibition at 0.63 µM (stock) is -18%. In addition, the “inhibition of HIV protease (in words)” value against HIV protease (concentration of Compound I about 63 μm or greater) was “very high degree to substantially complete inhibition”. In addition, the “activity in an assay for platelet activating factor” value in series [1] is on record as “some activity”. The specificity among proteases result in the series on proteases was “highly specific having no inhibitory effect or showing some activity only against proteases whose locus of action is avoidable”. Further, the “solubility in organic solvents” value in series [2] is reported as “soluble in organic solvents”. The “undesirable cytotoxic and other side effects” value in series [3] is “substantially free of undesirable cytotoxic and other side effects”.
